This is an account of results in patent US5504097A, “N-hydroxyureas as 5-lipoxygenase inhibitors and inhibitors of oxidative modification of low density lipoprotein” (American Home Products Corporation, priority 1995, dated 1996).

One experiment addresses T1, 5-Lipoxygenase (Homo sapiens, UniProt P09917).
T1 construct: from tissue; host or cells: whole blood of male human donors (endogenous enzyme of the leukocytes)
T1 sequence (P09917 1-674): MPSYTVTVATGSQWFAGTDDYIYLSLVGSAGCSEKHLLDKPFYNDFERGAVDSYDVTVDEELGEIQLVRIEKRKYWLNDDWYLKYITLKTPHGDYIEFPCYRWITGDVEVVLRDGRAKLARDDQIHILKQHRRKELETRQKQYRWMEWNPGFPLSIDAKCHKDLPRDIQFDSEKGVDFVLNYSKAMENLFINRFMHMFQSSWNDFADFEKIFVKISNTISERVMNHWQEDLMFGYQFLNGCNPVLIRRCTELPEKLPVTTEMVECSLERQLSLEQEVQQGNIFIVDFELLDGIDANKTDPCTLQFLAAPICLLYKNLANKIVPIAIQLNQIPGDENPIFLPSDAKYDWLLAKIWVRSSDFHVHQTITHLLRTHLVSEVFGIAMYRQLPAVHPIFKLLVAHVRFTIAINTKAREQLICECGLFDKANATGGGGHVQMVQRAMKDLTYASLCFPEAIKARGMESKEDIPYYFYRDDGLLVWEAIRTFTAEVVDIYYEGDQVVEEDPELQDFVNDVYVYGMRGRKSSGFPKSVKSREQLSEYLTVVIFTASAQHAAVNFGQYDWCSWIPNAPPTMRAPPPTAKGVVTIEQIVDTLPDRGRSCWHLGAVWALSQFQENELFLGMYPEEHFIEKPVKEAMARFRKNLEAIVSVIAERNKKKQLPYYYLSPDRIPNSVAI
The experiment is described as follows: Inhibition of 5-Lipoxygenase in Human Whole Blood (LTB4, calcium ionophore A23187). Type of experiment: cell-based. The method, then:
1. Inhibition of 5-Lipoxygenase in Human Whole Blood
Blood is obtained in 50-100 ml quantities from male donors. White blood cell counts and differentials are made. Two ml of blood are placed in a 15 ml polypropylene test tube. Test compounds are solubilized in dimethylsulfoxide and diluted in 1:10 in 10% bovine serum albumin in phosphate buffered saline, pH 7.4 resulting in a final dimethylsulfoxide concentration of 0.1% in the blood. Then, solutions of test compounds are added to the blood in a shaking water bath at 37° C. for 10 minutes prior to the addition of 30 μM calcium ionophore (A23187, Sigma). After ionophore administration, whole blood samples are mixed and incubated for 20 minutes at 37° C. in a shaking water bath. Incubation is terminated by placing samples in an ice bath and immediately adding ethylene glycol-bis-(β-aminoethyl ether)-N, N,N',N'-tetraacetic acid (10 mM). Samples are mixed and centrifuged at 1200× g for 15 minutes at 4° C. Preparation of samples for evaluation by RIA or ELISA is carried out by the following protocol. Plasma is removed from sample tubes, placed in 15 ml polypropylene test tubes containing 8 ml methanol, and then vortexed to precipitate protein. Samples are stored at -70° C. overnight. The next day, samples are centrifuged at 200× g for 15 minutes at 4° C. to pellet the precipitate. Samples are dried in a Savant SpeedVac Concentrator, Model SVC 200H, reconstituted to original volume with ice cold RIA or ELISA buffer, and stored at -70° C. until assayed. The assay for eicosanoids (LTB4, T×B2, and PGE2) is performed as described by the manufacturer of the ^3 H!-RIA kit or ELISA kit (LTB4 -Amersham, T×B2 and PGE2 -Caymen Chemical).
The total eicosanoid level in 2 ml of blood is calculated and reported as ng/10^6 neutrophils. Significance is determined by a one-way analysis of variance with least significant difference (LSD) comparisons to control (p≤0.05) and IC50 's (μM) are determined by regression analysis (Finney, 1978). Drug effects are expressed as percent change from control values.

Experiment [1] has as its system LT-dependent bronchoconstriction. In words: Inhibition of Bronchoconstriction in Guinea Pigs Induced by Exogenously Administered Antigen (ovalbumin). In kind it is in vivo, Male guinea pigs. As to conditions: Cavia porcellus, iv, 5 min; 10 mg/kg. The method, then:
4. Inhibition of Brochoconstriction in Guinea Pigs Induced by Exogenously Administered Antigen
Male guinea pigs (Charles River, Wilmington, Mass.) were sensitized 3-4 weeks prior to antigen challenge by administration of 2 i.m. injections of ovalbumin, 1 into each hind limb (35 mg total). Sensitized animals (500-600 g) were fasted overnight prior to experimentation. Conscious animals were then dosed p.o. with drug or vehicle alone (0.5% Tween 80 in H2 O) at the indicated times prior to antigen challenge, or anesthetized animals were dosed i.v. with drug or vehicle alone (DMSO) 5 min prior to antigen challenge. Animals were anesthetized by urethane (2.8 g/kg i.p.). A carotid artery and jugular vein were cannulated to allow for the monitoring of blood pressure and the administration of drugs, respectively. The trachea was then cannulated and connected to a Harvard Apparatus rodent ventilator (S. Natick, Mass). Spontaneous respiration was abolished by the administration of succinylcholine (2.5 mg/kg i.v.). The animals were then ventilated with room air at a rate of 65 breaths per min. Airway inflation pressure was measured using a Statham pressure transducer (Gould Instruments, Cleveland, Ohio) connected to the tracheal cannula via a side-arm and recorded on a Grass Instruments recorder (Quincy, Mass). The tidal volume (approximately 10 cc/kg) was adjusted to give a baseline inflation pressure of 8-10 cm H2 O at end inspiration. Animals were then allowed 20 min to stabilize.
Following the stabilization period, animals were given i.v. injections of pyrilamine (5 mg/kg), propranolol (0.1 mg/kg) and indomethacin (10 mg/kg) at 15, 10 and 5 min, respectively, prior to antigen challenge. This pretreatment results in an LT-dependent bronchoconstriction following antigen challenge, which was accomplished by i.v. administration of ovalbumin (10 mg/kg). Only one bronchoconstriction per animal was induced. End-inspiratory inflation pressure (in cm H2 O over baseline) was measured at 5 min post-antigen challenge. A mean value and standard error for the % inhibition of control bronchoconstriction in each drug-treated group was then calculated.

The next experiment relates to Lipoxygenase. In words: Ex-Vivo Measurement of Lipoxygenase Inhibition in Orally Dosed Rats (LTB4 in A23187-stimulated blood). Also on record: species or system Male Sprague Dawley rats. As to conditions: 10 mg/kg, p.o.; pretreatment period 6 hr. The method, then: 2. Ex-Vivo Measurement of Lipoxygenase Inhibition in Orally Dosed Rats
After an interval of 3 or 6 hours, the rats were anesthetized with metofane (n=4/group) and blood collected in heparinized tubes. White blood cell counts and differentials were made. One ml of blood from each animal was placed in a 5 ml plastic tube in a shaker bath at 37° C. A23187 at a final concentration of 10 μM was added to the blood and the blood vortexed and incubated for 15 min at 37° C. with gentle shaking. Incubation was terminated by vortexing sample and centrifuging immediately at 1200× G for 15 min at 4° C. The plasma was transferred to 15 ml plastic tubes each containing 8 ml of methanol to precipitate protein followed by vortexing. The samples were stored at -70° C. overnight and the next day the samples were centrifuged at 800× G for 15 min to pellet the precipitate. The samples were dried in a Savant SpeedVac Concentrator Model SVC 200H and reconstituted to the original volume with cold RIA or ELISA buffer. The reconstituted samples were stored at -70° C. until assayed. The assay for LTB4 was performed according to the directions of the ^3 H!RIA kit or ELISA kit (Seragen). The total metabolite level in 1 ml of blood is calculated and reported as ng/10^6 neutrophils. Significance is determined by a one-way analysis of variance with LSD comparisons to control (p≤0.05).

Where a name gives a salt, the structure may show the parent alone.

Consider `Cc1oc(-c2ccc(OCC(F)(F)F)cc2)nc1COc1ccc(CN(O)C(N)=O)cc1` [Example 7, 1-Hydroxy-1-4-5-methyl-2-(4-trifluoroethoxy-phenyl)-oxazol-4-ylmethoxy!-benzyl!-urea], for which the inhibition at 1 µM on 5-Lipoxygenase was 74%. The inhibition in vivo at 10 mg/kg in experiment [1] was 24%.
For the molecule `Cc1oc(-c2ccccc2)nc1COc1ccc(C(C)N(O)C(N)=O)cc1` (stereo not shown) [Example 8, 1-Hydroxy-1-1- -4(5-methyl-2-phenyl-oxazol-4-ylmethoxy)-phenyl!-ethyl!-urea], the inhibition at 10 µM on 5-Lipoxygenase (10 μM) stood at 57%.
As for `NC(=O)N(O)Cc1ccc(OCc2coc(-c3ccc(C(F)(F)F)cc3)n2)cc1` [Example 11, 1-Hydroxy-1-4-2-(4-trifluoromethyl-phenyl)-oxazol-4-ylmethoxy!-benzyl!-urea], on 5-Lipoxygenase, the inhibition at 1 µM came out at 32%. The “% Inhibition of LTB4” value in the experiment with Lipoxygenase was 68%.
Take `NC(=O)N(O)Cc1ccc(OCc2csc(-c3ccc(C(F)(F)F)cc3)n2)cc1` [Example 12, 1-Hydroxy-1-4-2-(4-trifluoromethyl-phenyl)-thiazol-4-yl-methoxy!-benzyl!urea]: the inhibition at 1 µM on 5-Lipoxygenase stood at 56%. The inhibition in vivo at 10 mg/kg in experiment [1] amounted to 30%.
Regarding `O=C(Nc1ccc(F)cc1)N(O)Cc1ccc(OCc2csc(-c3ccc(C(F)(F)F)cc3)n2)cc1` [Example 13, 3-(4-Fluoro-phenyl)-1-hydroxy-1-4-2-(4-trifluoromethyl-phenyl)-thiazol-4-ylmethoxy!-benzyl!-urea], the inhibition at 1 µM at 5-Lipoxygenase turned out to be 38%.
With `NC(=S)N(O)Cc1ccc(OCc2csc(-c3ccc(Cl)cc3)n2)cc1` [Example 15, 1-Hydroxy-1-4-2-(4-chloro-phenyl)-thiazol-4-ylmethoxy!-benzyl!-thiourea], the inhibition at 1 µM at 5-Lipoxygenase turned out to be 57%. For the same molecule, 10 mg/kg produced 21% inhibition in vivo in experiment [1].
Turning to `CCCCCCNC(=O)N(O)Cc1ccc(OCc2csc(-c3ccc(Cl)cc3)n2)cc1` [Example 16, 1-4-2-(4-chloro-phenyl)-thiazol-4-ylmethoxy!-benzyl!-3-hexyl-1-hydroxy-urea], the inhibition at 10 µM on 5-Lipoxygenase (10 μM) turned out to be 36%.
With `COc1ccc(-c2nc(COc3ccc(CN(O)C(N)=O)cc3)cs2)cc1` [Example 17, 1-Hydroxy-1-4-2-(4-methoxy-phenyl)-thiazol-4-ylmethoxy!-benzyl!-urea], the inhibition at 1 µM on 5-Lipoxygenase stood at 56%. Also, in the experiment with Lipoxygenase, the “% Inhibition of LTB4” value is recorded as 69%. This molecule also gave an inhibition in vivo at 10 mg/kg in experiment [1] of 50%.
On to `Cc1oc(-c2ccccc2)nc1COc1ccc(C(O)CN(O)C(N)=O)cc1` (stereo not shown) [Example 18, 1-Hydroxy-1-2-hydroxy-2-4-(5-methyl-2-phenyl-oxazol-4-ylmethoxy)-phenyl!-ethyl!-urea], for which, on 5-Lipoxygenase (10 μM), the inhibition at 10 µM amounted to 86%.
The same measure, in the same setting: to `Cc1oc(-c2ccc(C(F)(F)F)cc2)nc1COc1ccc(CN(O)C(=O)NN)cc1` [Example 19, 4-Hydroxy-4-4-5-methyl-2-(4-trifluoromethyl-phenyl)-oxazol-4-ylmethoxy!-benzyl!-semicarbazide] belongs 50%; to `CC(C)=NNC(=O)N(O)Cc1ccc(OCc2nc(-c3ccc(C(F)(F)F)cc3)oc2C)cc1` [Example 20, 1-Isopropylidine-4-hydroxy-4-4-5-methyl-2-(4-trifluoromethylphenyl)oxazol-4-ylmethoxy!-benzyl!-semicarbazone], 78%; to `NNC(=O)N(O)Cc1ccc(OCc2csc(-c3ccccc3)n2)cc1` [Example 21, 4-Hydroxy-4-4-(2-phenyl-thiazol-4-ylmethoxy)-benzyl!-semicarbazide], 94%.
On to `NNC(=O)N(O)Cc1ccc(OCc2csc(-c3ccccc3)n2)cc1` [Example 22, 4-Hydroxy-4-4-(2-phenyl-thiazol-4-ylmethoxy)-benzyl!-semicarbazide hydrochloride], for which the “% Inhibition of LTB4” value on 5-Lipoxygenase (10 μM, hydrochloride) was 80%.

For orientation: inhibition means the relative decrease from the control value, in per cent. For orientation: inhibition in vivo means the drop in the measured response relative to a control, in per cent. Low values mean a weak effect, high ones a strong effect.
